Experimental data: patent US11358969B2, “Indole AHR inhibitors and uses thereof” (Ikena Oncology, Inc., priority 2017, dated 2022)

Experiments:
AHR [1] = biological target: T1, AHR (UniProt P35869); test: DRE-Luciferase Reporter Assay (Example 1A); assay type: cell-based, murine or human; conditions: cell line and AHR activating ligand not specified
T1 construct: IC50
T1 sequence (P35869 1-848): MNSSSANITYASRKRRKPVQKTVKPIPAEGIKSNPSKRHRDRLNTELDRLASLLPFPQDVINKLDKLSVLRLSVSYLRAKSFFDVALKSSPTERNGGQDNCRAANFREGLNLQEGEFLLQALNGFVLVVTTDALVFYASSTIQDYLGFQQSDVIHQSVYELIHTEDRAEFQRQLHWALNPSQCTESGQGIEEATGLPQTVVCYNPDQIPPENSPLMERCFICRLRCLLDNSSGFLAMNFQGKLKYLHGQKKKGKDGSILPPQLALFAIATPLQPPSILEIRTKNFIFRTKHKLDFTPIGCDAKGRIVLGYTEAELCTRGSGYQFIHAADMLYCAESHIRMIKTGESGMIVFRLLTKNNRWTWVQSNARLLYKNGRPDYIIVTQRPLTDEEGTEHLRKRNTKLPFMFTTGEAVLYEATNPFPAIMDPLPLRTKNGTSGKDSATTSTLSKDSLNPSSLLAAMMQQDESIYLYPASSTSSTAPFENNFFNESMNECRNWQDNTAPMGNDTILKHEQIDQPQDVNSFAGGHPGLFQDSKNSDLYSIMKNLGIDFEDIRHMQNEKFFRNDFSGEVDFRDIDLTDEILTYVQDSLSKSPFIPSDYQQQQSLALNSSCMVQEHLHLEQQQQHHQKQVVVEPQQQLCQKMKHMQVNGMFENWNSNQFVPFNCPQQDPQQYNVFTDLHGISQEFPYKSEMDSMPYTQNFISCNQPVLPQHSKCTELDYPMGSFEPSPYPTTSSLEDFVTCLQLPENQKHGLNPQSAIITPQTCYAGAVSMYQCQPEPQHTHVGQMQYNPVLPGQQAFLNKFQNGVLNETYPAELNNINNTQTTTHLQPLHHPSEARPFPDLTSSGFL
Protocol: AHR binds to Dioxin Responsive Elements (DRE) upstream of genes that it activates. One measure of AHR activity is activation of a reporter gene, such as luciferase, downstream of one or multiple DRE elements. Luciferase activity will reflect activation and inhibition of AHR in the cells expressing his reporter.
Murine Hepa1-6 or Hepa-1c1c7 or other murine cell line with a DRE-luciferase reporter either stably or transiently transfected were plated in media in plates (96-well, 384-well or other plates) and incubated overnight at 37° C. in a CO2 incubator. Likewise, human HepG2 or other human cell line with a DRE-luciferase reporter either stably or transiently transfected were plated in media in plates (96-well, 384-well or other plates) and incubated overnight at 37° C. in a CO2 incubator.
The next day, an AHR activating ligand, such as TCDD, kynurenine, ITE (2-(1H-indole-3-ylcarbonyl)-4-thiazolecarboxylic methyl ester), VAF347, BNF (beta-naphthoflavone), FICZ (6-formylindolo(3,2-b) carbazole or other AHR ligands, was added with or without AHR antagonist.
Cells were incubated for 4, 15 or 24 hours or another time point and then lysed for determination of luciferase activity as a read-out of the AHR activation or inhibition. Luciferase was measured with a commercial kit such as the Promega Luciferase kit or any kit or reagents that provide the luciferin substrate for measuring luciferase activity. The level of luciferase with only activating ligand added was the maximum signal while the luciferase with no ligand was the minimum signal. IC50 values were determined as the concentration which inhibits half of the luciferase activity.

AHR [2] = biological target: T1, AHR; test: DRE-Luciferase Reporter Assay (Alternate Method) (Example 1B); assay type: cell-based, murine or human; conditions: cell line and AHR activating ligand not specified
[3] = In Vitro Mouse liver S9 Metabolic Stability Assay (Example 1D); assay type: in vitro ADME; conditions: CD-1 mouse liver S9, 1 μM compound, 1 mg/mL S9 protein, 37° C., NADPH regenerating system, UDPGA, PAPS
Summary of the method: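 Compound at 1 μM final (0.1% DMSO) incubated at 37° C with pooled CD-1 mouse liver S9 (1 mg/mL protein) plus NADPH-regenerating system, UDPGA and PAPS. Samples at 0 and 60 min quenched in cold acetonitrile with internal standard; LC-MS/MS analyte/IS peak-area ratios give % remaining at 60 min.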

Compound	IC50 (AHR [1])	IC50 (AHR [2])	Mouse S9 Stability: % Remaining After 60 Minutes [3]
CC(C)c1n[nH]c2c(NCCc3c[nH]c4ccccc34)nc(-c3cncc(F)c3)nc12 [I-1, 5-(5-Fluoro-3-pyridyl)-N-[2-(1H-indol-3-yl)ethyl]-3-isopropyl-1H-pyrazolo[4,3-d]pyrimidin-7-amine]	1000 to 1500 nM	< 500 nM	
Fc1cncc(-c2nc(NCCc3c[nH]c4ccccc34)c3ccsc3n2)c1 [I-5, N-(2-(1H-indol-3-yl)ethyl)-2-(5-fluoropyridin-3-yl)thieno[2,3-d]pyrimidin-4-amine]	> 1500 nM	< 500 nM	
CC(C)n1cnc2c(NCCc3c[nH]c4cccnc34)nc(-c3cncc(F)c3)nc21 [I-7, 2-(5-Fluoro-3-pyridyl)-9-isopropyl-N-[2-(1H-pyrrolo[3,2-b]pyridin-3-yl)ethyl]purin-6-amine]	< 500 nM	> 1500 nM	
CC(C)n1cnc2c(NCCc3c[nH]c4cnccc34)nc(-c3cncc(F)c3)nc21 [I-9, 2-(5-Fluoro-3-pyridyl)-9-isopropyl-N-[2-(1H-pyrrolo[2,3-c]pyridin-3-yl)ethyl]purin-6-amine]	1000 to 1500 nM	500 to 1000 nM	

The next lines start with the values.

IC50 (AHR [1])	IC50 (AHR [2])	Mouse S9 Stability: % Remaining After 60 Minutes [3]	Compound
1000 to 1500 nM	< 500 nM		CC(C)c1csc2c(NCCc3c[nH]c4ccccc34)nc(-c3cncc(F)c3)nc12 [I-3, N-(2-(1H-indol-3-yl)ethyl)-2-(5-fluoropyridin-3-yl)-7-isopropylthieno[3,2-d]pyrimidin-4-amine]
< 500 nM	< 500 nM	0%	CC(C)n1ccc2c(NCCc3c[nH]c4ccccc34)nc(-c3cncc(F)c3)nc21 [I-4, 2-(5-Fluoro-3-pyridyl)-N-[2-(1H-indol-3-yl)ethyl]-7-isopropyl-pyrrolo[2,3-d]pyrimidin-4-amine]
< 500 nM	< 500 nM	0%	CC(C)n1cnc2c(NCCc3c[nH]c4ccccc34)nc(-c3cncc(F)c3)nc21 [I-6]
500 to 1000 nM	< 500 nM		CC(C)c1ccc2c(NCCc3c[nH]c4ccccc34)nc(-c3cncc(F)c3)nn12 [I-19, N-(2-(1H-Indol-3-yl)ethyl)-2-(5-fluoropyridin-3-yl)-7-isopropylpyrrolo[2,1-f][1,2,4]triazin-4-amine]
